Measurements published in ChEMBL document CHEMBL3576851, “Bacterial Sliding Clamp Inhibitors that Mimic the Sequential Binding Mechanism of Endogenous Linear Motifs” (J Med Chem, 2015).
Calls of active or inactive are those of the source. The calls are words filed in the database; no cut-off is given here.

Experiments:
[1] = molecular target: T1, Beta sliding clamp (Escherichia coli (strain K12), UniProt P0A988); test: Inhibition of Escherichia coli DNA sliding clamp protein using N-fluorescein (FAM)-QLDLF-OH tracer by fluorescence polarization assay
[2] = molecular target: T1, Beta sliding clamp; test: Binding affinity to Escherichia coli DNA sliding clamp protein at 298K by isothermal titration calorimetry
[3] = molecular target: Beta sliding clamp (Escherichia coli (strain K12)) (UniProt P0A988); test: Inhibition of Escherichia coli DNA sliding clamp protein assessed as reduction in DNA replication at 31 uM in presence of circular ssDNA, RNA primer template, SSB, Pol3-alpha subunit, reconstituted gamma3delta-delta' clamp loader complex by SYBR gold dye based agarose gel electrophoresis method
[4] = molecular target: Beta sliding clamp (Escherichia coli (strain K12)) (UniProt P0A988); test: Inhibition of Escherichia coli DNA sliding clamp protein assessed as reduction in DNA replication at >125 uM in presence of circular ssDNA, RNA primer template, SSB, Pol3-alpha subunit, reconstituted gamma3delta-delta' clamp loader complex by SYBR gold dye based agarose gel electrophoresis method

Sequence of Beta sliding clamp (Escherichia coli (strain K12)) (P0A988 whole entry): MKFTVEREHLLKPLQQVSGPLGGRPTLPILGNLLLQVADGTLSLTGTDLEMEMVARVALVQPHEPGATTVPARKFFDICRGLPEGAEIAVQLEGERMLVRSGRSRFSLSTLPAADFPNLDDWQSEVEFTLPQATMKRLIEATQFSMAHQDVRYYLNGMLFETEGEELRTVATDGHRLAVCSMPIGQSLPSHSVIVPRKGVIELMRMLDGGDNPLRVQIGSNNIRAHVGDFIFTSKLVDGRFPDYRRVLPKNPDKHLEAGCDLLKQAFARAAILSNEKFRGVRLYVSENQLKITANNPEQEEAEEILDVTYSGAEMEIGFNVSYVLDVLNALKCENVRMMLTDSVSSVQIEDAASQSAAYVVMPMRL
T1 sequence (P0A988 whole entry): as above

| Structure (SMILES) | IC50 [1] | Ki [1] | Kd [2] | inhibition [3] | inhibition [4] |
| --- | --- | --- | --- | --- | --- |
| O=C(O)[C@H]1CCc2c([nH]c3ccc(Br)cc23)C1 | 328 µM | 182 µM |  |  |  |
| O=C(O)[C@H]1CCc2c([nH]c3ccc(Cl)cc23)C1 | 442 µM | 246 µM |  |  |  |
| NC(=O)Cn1c2c(c3cc(Br)ccc31)CC[C@H](C(=O)O)C2 | 285 µM | 158 µM |  |  |  |
| O=C(O)CNC(=O)Cn1c2c(c3cc(Br)ccc31)CC[C@@H](C(=O)O)C2 | 20 µM | 11 µM | 14 µM | Active |  |
| O=C(O)[C@@H]1CCc2c([nH]c3ccc(Cl)cc23)C1 | 134 µM | 74 µM |  |  | Active |
| NC(=O)CNC(=O)Cn1c2c(c3cc(Br)ccc31)CC[C@@H](C(=O)O)C2 | 171 µM | 95 µM |  |  |  |
| OCC1CCc2c([nH]c3ccc(Cl)cc23)C1 (racemic) | > 1000 µM |  |  |  |  |
| O=C(O)C1CCc2c([nH]c3ccc(Cl)cc23)C1 (racemic) | 299 µM | 166 µM |  |  |  |
| O=C(O)[C@@H]1CCc2c([nH]c3ccc(F)cc23)C1 | 817 µM | 454 µM |  |  |  |
| CC(C)(C)OC(=O)N1CCC(CNC(=O)Cn2c3c(c4cc(Br)ccc42)CC[C@@H](C(=O)O)C3)CC1 | 150 µM | 83 µM |  |  |  |
| O=C(Cn1c2c(c3cc(Br)ccc31)CC[C@@H](C(=O)O)C2)N[C@H](Cc1ccccc1)C(=O)O | 30 µM | 17 µM | 13 µM | Active |  |
| NC(=O)Cc1ccc(NC(=O)Cn2c3c(c4cc(Cl)ccc42)CC[C@@H](C(=O)O)C3)cc1 | 362 µM | 201 µM |  |  |  |
| NC(=O)Cn1c2c(c3cc(Cl)ccc31)CC[C@H](C(=O)O)C2 | 888 µM | 493 µM |  |  |  |
| CCNC(=O)Cn1c2c(c3cc(Cl)ccc31)CC[C@@H](C(=O)O)C2 | 347 µM | 193 µM |  |  |  |
| NC(=O)C1CCc2c([nH]c3ccc(Cl)cc23)C1 (racemic) | > 1000 µM |  |  |  |  |
| CC(C)C[C@H](NC(=O)Cn1c2c(c3cc(Br)ccc31)CC[C@@H](C(=O)O)C2)C(=O)O | 48 µM | 27 µM |  |  |  |
| O=C(O)[C@@H]1CCc2c([nH]c3ccc(I)cc23)C1 | 175 µM | 97 µM |  |  |  |
| COC(=O)C1CCc2c([nH]c3ccc(Cl)cc23)C1 (racemic) | > 1000 µM |  |  |  |  |
| O=C(Cn1c2c(c3cc(Br)ccc31)CC[C@@H](C(=O)O)C2)N[C@@H](Cc1ccccc1)C(=O)O | 27 µM | 15 µM | 9 µM | Active |  |
| NC(=O)Cn1c2c(c3cc(Br)ccc31)CC[C@@H](C(=O)O)C2 | 246 µM | 137 µM |  |  | Active |
| O=C(Cn1c2c(c3cc(Br)ccc31)CC[C@@H](C(=O)O)C2)NCC1CCNCC1 | 208 µM | 116 µM |  |  |  |
| CC(C)(C)OC(=O)NCCCC[C@@H](NC(=O)Cn1c2c(c3cc(Br)ccc31)CC[C@@H](C(=O)O)C2)C(=O)O | 115 µM | 64 µM |  |  |  |
| O=C(O)CNC(=O)Cn1c2c(c3cc(Cl)ccc31)CC[C@@H](C(=O)O)C2 | 85 µM | 47 µM | 24 µM |  |  |
| NC(=O)c1ccc(CNC(=O)Cn2c3c(c4cc(Br)ccc42)CC[C@@H](C(=O)O)C3)cc1 | 64 µM | 36 µM |  |  |  |
| NC(=O)Cn1c2c(c3cc(Cl)ccc31)CC[C@@H](C(=O)O)C2 | 368 µM | 204 µM |  |  | Active |
| O=C(O)[C@@H]1CCc2c([nH]c3ccc(Br)cc23)C1 | 157 µM | 87 µM |  |  | Active |
| NC(=O)CN1CCC(NC(=O)Cn2c3c(c4cc(Br)ccc42)CC[C@@H](C(=O)O)C3)CC1 | 307 µM | 171 µM |  |  |  |
